In PubChem BioAssay (NCI):
Values joined by “and” are separate entries in the source; they are usually repeats but may differ in a detail not shown here. Equal entries are not always repeated.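 Growth conditions: 96-well plates. Treatment: test compound, 48 hours, 5 concentrations. Analysis: linear interpolation between bracketing concentrations; unreached endpoints set to highest concentration. Here, GI50 denotes the concentration required for 50% inhibition of growth. TGI is the concentration that stops growth completely.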

Legend:
Experiment in all cases: NCI anticancer screen, dose series, 48 h
A498 renal = tested on: A498 renal
M14 melanoma = tested on: M14 melanoma
CCRF-CEM leukemia = tested on: CCRF-CEM leukemia
OVCAR-3 ovarian = tested on: OVCAR-3 ovarian
HOP-62 NSCLC = tested on: HOP-62 NSCLC
UACC-257 melanoma = tested on: UACC-257 melanoma
SK-MEL-5 melanoma = tested on: SK-MEL-5 melanoma
HCT-116 colon = tested on: HCT-116 colon
CAKI-1 renal = tested on: CAKI-1 renal
DU-145 prostate = tested on: DU-145 prostate

Structure (SMILES) | TGI (A498 renal) | TGI (M14 melanoma) | TGI (CCRF-CEM leukemia) | TGI (OVCAR-3 ovarian) | TGI (HOP-62 NSCLC) | TGI (UACC-257 melanoma) [µM] | TGI (SK-MEL-5 melanoma) | TGI (HCT-116 colon) | GI50 (M14 melanoma) | GI50 (CCRF-CEM leukemia) | GI50 (CAKI-1 renal) [µM] | TGI (CAKI-1 renal) [µM] | GI50 (OVCAR-3 ovarian) | GI50 (HOP-62 NSCLC) | GI50 (UACC-257 melanoma) | GI50 (SK-MEL-5 melanoma) | GI50 (DU-145 prostate) [µM] | TGI (DU-145 prostate) | GI50 (A498 renal) | GI50 (HCT-116 colon)
CN(C)CCNC(=O)c1c2ccccc2cc2ccccc12 | > 100 µM | 30.7 µM | > 100 µM | > 100 µM | > 100 µM | 34.4 | 34.3 µM | > 100 µM | – | – | – | – | – | – | – | – | – | – | – | –
COc1cnc2c(c1)C(=O)c1c-2n(CCCNCCN2CCOCC2)c(=O)c2cc([N+](=O)[O-])ccc12 | – | 1.52 µM | 3.2 µM | 1.71 µM | 1.08 µM | 13.3 | 1.26 µM | – | 0.0689 µM | 0.0453 µM | 0.0433 | 7.31 | 0.315 µM | 0.15 µM | 0.586 µM | 0.263 µM | 0.0608 | 1.12 µM | – | –
Cc1ccc(/C=C/C(=O)c2ccc([N+](=O)[O-])cc2)cc1 | 19.1 µM | > 100 µM | > 100 µM | > 100 µM | > 100 µM | > 100 | > 100 µM | > 100 µM | – | – | – | > 100 | – | – | – | – | – | – | – | –
C=C1CCC2C(C)(CO)C(O)CCC2(C)C1C/C=C1/CCOC1=O (stereo not drawn) | > 100 µM | > 100 µM | > 100 µM | > 100 µM | > 100 µM | > 100 | > 100 µM | > 100 µM | – | – | – | > 100 | – | – | – | – | – | – | – | –
CN(C)C(=S)/N=c1\ss/c(=N\C(=S)N(C)C)n1Cc1ccco1 | > 100 µM | > 100 µM | > 100 µM | – | > 100 µM | > 100 | > 100 µM | > 100 µM | – | – | – | > 100 | – | – | – | – | – | – | – | –
c1ccc2cc(C[n+]3ccn(Cc4ccc5ccccc5n4)c3)ccc2c1 | 3.9 µM and 24.1 µM | 4.55 µM and 17.1 µM | 11 µM and 16.4 µM | 1.98 µM and 13.2 µM | 7.02 µM and 20.3 µM | – | 0.532 µM and 2.5 µM | 6.86 µM and 15.8 µM | 0.727 µM and 3.26 µM | 0.728 µM and 3.64 µM | – | – | 0.316 µM and 2.15 µM | 1.4 µM and 5.05 µM | 0.28 µM and 2.7 µM | 0.216 µM and 1.21 µM | – | 12.4 µM and 22.4 µM | 0.492 µM and 2.49 µM | 0.413 µM and 3.29 µM
OCC(O)COc1c(Cl)cc(Cl)cc1Cl (stereo not drawn) | > 100 µM | > 100 µM | > 61.9 µM | > 100 µM | > 100 µM | > 100 | > 100 µM | > 100 µM | – | – | – | > 100 | – | – | – | – | – | – | – | –
O=S1c2ccccc2NC(c2ccc3ccccc3c2)CC1c1ccccc1 (stereo not drawn) | – | > 100 µM | 38 µM | 35.1 µM | > 100 µM | > 100 | 37.9 µM | – | – | – | – | 79 | – | – | – | – | – | – | – | –
CC[C@H]1CN(C)[C@H]2Cc3c([nH]c4ccccc34)C(=O)C[C@H]1C2C(=O)OC (stereo partly drawn) | > 100 µM | > 100 µM | > 100 µM | > 100 µM | > 100 µM | > 100 | > 100 µM | > 100 µM | – | – | – | – | – | – | – | – | – | > 100 µM | – | –
CCOC(=O)C(=O)Nc1ccccc1OCC | – | > 100 µM | > 100 µM | > 100 µM | > 100 µM | > 100 | > 100 µM | > 100 µM | – | – | – | > 100 | – | – | – | – | – | – | – | –
O=C1CCNC(=O)NC1 | > 100 µM | > 100 µM | > 100 µM | > 100 µM | > 100 µM | > 100 | > 100 µM | > 100 µM | – | – | – | > 100 | – | – | – | – | – | – | – | –
Oc1ccc2ccccc2c1N=Nc1ccc(Cl)cc1 | – | > 100 µM | > 100 µM | > 100 µM | > 100 µM | > 100 | > 100 µM | > 100 µM | – | – | – | > 100 | – | – | – | – | – | > 100 µM | – | –
O=C(O)c1cn(C2CC2)c2cc(N3CCNCC3)c(F)cc2c1=O | – | > 100 µM | > 100 µM | > 100 µM | > 100 µM | > 100 | > 100 µM | > 100 µM | > 100 µM | > 100 µM | > 100 | > 100 | > 100 µM | > 100 µM | > 100 µM | > 100 µM | > 100 | > 100 µM | – | > 100 µM
O=C1CC(c2ccsc2)c2snc(-c3ccc(Cl)cc3)c2N1 (stereo not drawn) | 7.94 µM | > 100 µM | – | 4.78 µM | 35.2 µM | > 100 | 2.4 µM | > 100 µM | 0.804 µM | – | 1.03 | > 100 | 0.694 µM | 2.63 µM | 4.08 µM | 0.404 µM | 2.68 | > 100 µM | 1.09 µM | 0.515 µM
COc1cc2cnc(-c3ccccc3)cc2cc1OC | 21.2 µM | > 100 µM | – | 85.6 µM | > 100 µM | 53.3 | 27.7 µM | > 100 µM | – | – | – | 62.4 | – | – | – | – | – | > 100 µM | – | –
O=C1CCCC(O)=C1SC1=C(O)CCCC1=O | > 100 µM | > 100 µM | > 100 µM | > 100 µM | – | > 100 | > 100 µM | > 100 µM | – | – | – | > 100 | – | – | – | – | – | – | – | –
CN1C(=O)CCC1c1ccc2c(c1)oc(=O)n2C (stereo not drawn) | – | > 100 µM | > 100 µM | – | > 100 µM | > 100 | – | > 100 µM | – | – | – | > 100 | – | – | – | – | – | – | – | –
O=C(Oc1ccc2c(-c3ccccc3)c(C(=O)Nc3ccc(Cl)cc3)c(=O)oc2c1)c1ccccc1 | – | > 100 µM | > 100 µM | > 100 µM | > 100 µM | > 100 | > 100 µM | > 100 µM | – | – | – | – | – | – | – | – | – | – | – | –
CN(C)c1ccc2cc3ccc(N(C)C)cc3nc2c1 | 9.01 µM | 8.15 µM | – | 13.4 µM | 7.18 µM | 24.8 | 8.34 µM | – | – | – | – | 13.5 | – | – | – | – | – | 4.29 µM | – | –
Cc1cc(NCc2cc(Nc3ccnc4cc(Cl)ccc34)ccc2F)nc(N2CCSCC2)n1 | 10.4 µM | – | > 100 µM | 2.93 µM | 5.64 µM | – | 2.94 µM | 2.46 µM | – | 0.473 µM | 1.51 | 3.19 | 1.59 µM | 1.89 µM | – | 1.53 µM | 3.31 | 15.7 µM | 2.18 µM | 1.18 µM
NC(CCc1ncc(-c2ccccc2)s1)C(=O)O (stereo not drawn) | > 100 µM | > 100 µM | > 100 µM | > 100 µM | – | > 100 | > 100 µM | > 100 µM | – | – | – | > 100 | – | – | – | – | – | – | – | –
O=c1ccn(C2(CO)C=C(CO)C(O)C2O)c(=O)[nH]1 (stereo not drawn) | > 25.7 µM | > 25.7 µM | – | > 25.7 µM | > 25.7 µM | > 25.7 | > 25.7 µM | > 25.7 µM | – | – | – | > 25.7 | – | – | – | – | – | – | – | –
